The values that follow come from patent US4230698A, “2-Substituted arabinofuranosyl nucleosides and nucleotides” (Research Corporation, priority 1978, dated 1980).

A value given as a limit tells only on which side of the number the result lay.

Series [1] relates to HeLa. Kind of series: In vitro cytotoxicity testing (growth inhibition, Trypan Blue exclusion), HeLa. The settings on record: Homo sapiens, 40 hr, 37 degrees C, read-out: Concentration for 50% Inhibition of Growth. The series is classed as cell-based. As for the experimental part: (§1) Cytarazid, the β-anomer of the nucleoside prepared in Example 3 herein, and cytaramin, the nucleoside prepared in Example 4 herein, are evaluated in vitro for growth inhibiting potency against mammalian cancer cells by a micro technique, using the culture conditions described by Bobek et al. in J. Med. Chem., vol. 20, p. 458 (1977), whereby 0.5 ml. aliquots of medium (RPMI 1640.div.10% fetal calf serum) containing the test compound are introduced into 16×125 mm. screw cap culture tubes, followed by 0.5 ml. portions of the medium containing 1×10^5 mammalian cancer cells. The cultures are incubated at 37 degrees C. for 40 hr., after which time the viable cells are counted by Trypan Blue exclusion. During this time the cell number in the controls increases about four to nine-fold with an average cell viability of 99%. The test results are as follows:
(§2) Concentration for 50% Inhibition of Growth
(§3) Cell Line Cytarazid Cytaramin

Series [2] deals with L-1210. The series can be described thus: In vitro cytotoxicity testing (growth inhibition, Trypan Blue exclusion), L-1210. Format: cell-based. The settings on record: Mus musculus, L1210, 40 hr, 37 degrees C, read-out: Concentration for 50% Inhibition of Growth. On the procedure: as §1, §2, §3
In series [3] the test system is L-1210 leukemic cells. The series can be described thus: In vivo cytotoxicity testing, survival of mice inoculated with L-1210 leukemic cells. Details: species or system DBA/2 HaDD mice. The settings on record: control 8.7 days. On the procedure:
Cytarazid and cytaramin are evaluated in vivo for growth inhibitory potency against leukemic cells by intraperitoneally inoculating DBA/2 HaDD mice with an IP-PBS saline suspension of 1×10^6 L-1210 leukemic cells, waiting 24 hrs., and then administering the test compound intraperitoneally in 0.2 ml. of saline-phospate buffer solution (pH 7.0).

In series [4] the test system is CR-CdR deaminase. The series can be described thus: in vitro. As for the experimental part: (§4) Partially purified CR-CdR deaminase is prepared from two different sources: (1) human liver, following the procedure of Wentworth and Wolfender, Biochemistry, vol. 14, p. 5099 (1975), and (2) blast cells of patients with acute myelocytic leukemia, using ammonium sulfate fractionation and DEAE column chromatography. The assay procedure is described by Wentworth and Wolfander, ibid.

The subject of series [5] is Herpes Simplex type I virus. The series can be described thus: In vitro antiviral testing, plaque reduction, Herpes Simplex type I. The settings on record: for antiviral properties: plaque reduction. Format: cell-based. The text has this: (§5) Cytarazid and cytaramin, when tested in vitro against Herpes Simplex types I and II viruses, utilizing the plaque reduction technique described by Dulbecco, Proceedings National Academy of Sciences, vol. 38, p.

The subject of series [6] is Herpes Simplex type II virus. The series can be described thus: In vitro antiviral testing, plaque reduction, Herpes Simplex type II. The series is classed as cell-based. The settings on record: for antiviral properties: plaque reduction.
From the text: as §5

Series [7] relates to Molt 4F (T-type from lymphoblastic leukemia). Kind of series: In vitro cytotoxicity testing (growth inhibition, Trypan Blue exclusion), Molt 4F. Format: cell-based. The settings on record: Homo sapiens, 40 hr, 37 degrees C, read-out: Concentration for 50% Inhibition of Growth. On the procedure:
as §1, §2, §3

Series [8] can be described thus: in vitro. The settings on record: human, cr-cdr deaminase. As for the experimental part:
as §4

[9] abbreviates: 50 μM, read-out: inhibition of the virus (log).

Broadly, the inhibition is the drop in the measured response relative to a control, in per cent. A higher inhibition goes with a strong effect. The term half-life denotes the time in which the quantity being followed falls by half. Low values mean fast loss, high ones slow loss.

On to `Nc1ccn([C@@H]2O[C@H](CO)[C@@H](O)[C@@H]2N)c(=O)n1` [Cytaramin, 1-(2-amino-2-deoxy-β-D-arabinofuranosyl) cytosine], for which the IC50 in series [1] was found to be 30000 nM; in series [2], 4000 nM. Moreover, the “Survival Time” value in series [3] (75 mg/kg IP twice per day 8 hrs apart for 2 days beginning 24 hrs after tumor inoculation) is recorded as over 120 days. Besides, the “deamination detected in 8 hrs” value in series [4] is given as “no significant deamination”. The antiviral properties result in series [5] and in series [6] was “significant antiviral properties” each time.
As for `[N-]=[N+]=N[C@H]1[C@H](O)[C@@H](CO)O[C@H]1n1ccc(N)nc1=O` [Cytarazid, 1-(2-azido-2-deoxy-β-D-arabinofuranosyl) cytosine], the IC50 was determined as 200 nM in series [1], 70 nM in series [7] and 600 nM in series [2]. For the same compound, the “Survival Time” value in series [3] (40 mg/kg IP twice per day 8 hrs apart for 2 days beginning 24 hrs after tumor inoculation) was over 120 days. In addition, the “deamination detected in 8 hrs” value in series [4] is “no significant deamination”. Further, the inhibition at 50 µM in series [5] (50 μM) is over 99.9%; in series [6] (50 μM) it was over 99%. Further, the results for the log reduction at 50 µM in series [5] (setting [9]) and in series [6] (setting [9]) were over 3 and over 2, respectively. For the same compound, the antiviral properties entry in series [5] and in series [6] was “significant antiviral properties” each time.
For `Nc1ccn([C@@H]2O[C@H](CO)[C@@H](O)[C@@H]2O)c(=O)n1` [cytarabine, reference compound], the half-life in series [8] stood at 45 min.
